“Also recorded” adds a separate entry of the source. Where a name gives a salt, the structure may show the parent alone.
Tested on: Eimeria acervulina HT
Assay: Anticoccidial effect on Eimeria acervulina in chickens (Embodiment 5)
Type: in vivo
Conditions: 125 ppm in feed; for average weight gain / number of oocysts in feces: 7th day after infecting; for survival rate: chickens; for relative decrement rate of oocysts: vs infected non-drug control; for relative weight gain rate: vs non-infected non-drug control
Text: 1-day-old Lingnan yellow chickens, purchased from Poultry Research Unit, Bureau of Animal Husbandry, Guangdong Academy of Agricultural Sciences, bred under coccidium-free environment, and subjected to grouping and experiment after no coccidium oocyst is found in feces through microscopic examination when the chickens are 14 days old.
Eimeria acervulina HT, having no resistance to various anticoccidial drugs. Breeding and amplifying in chickens before the experiment, collecting fresh eggs, sporulating, and preserving at 4° C. for later use.
Weighing the 14-day-old experiment chickens one by one, rejecting emaciated chickens or overweighted chicks, selecting healthy chickens of which the individual body weight difference is within 20 g, and dividing to 4 groups with 30 chickens in each group. Groups 1 and 2 are respectively a non-drug-applied and non-coccidium-killed control group and a coccidium-infected and non-drug-applied control group, and Groups 3 and 4 are added with fluoroethyl thiamine hydrochloride or amprolium according to Table 8. Feeding with feed containing different drugs on the day of experiment grouping, enabling the chickens to freely take in the feed, and feeding the chickens until the experiment ends.
Except the non-coccidium-infected and non-drug-applied control group, giving each experiment chicken in each experiment group with 5×10^5 eimeria acervulina sporulated oocysts via the crop on the next day of the grouping day. During experiment, observing and recording the spirit, appetite, bloody feces situation, death count and the like of the chickens every day. On the 7th day after infecting, respectively weighing each group, calculating the relative weight gain rate, simultaneously collecting feces samples, and counting the number of oocysts per gram of feces.
2.3.1 Weight gain: respectively weighing each chicken when the experiment starts and ends, and calculating the average weight gain and relative weight gain rate. The relative weight gain rate=(the average weight gain in the experiment groups/the average weight gain in the non-infected and non-drug-applied control group)×100%.
2.3.2 Survival rate: recording the number of dead chickens of each group, autopsying to determine the death cause, and calculating the survival rate. The survival rate=(the total number of the chickens in the experiment groups−the number of the chickens dying of coccidium infection during the experiment)/the total number of the chickens in the experiment groups×100%.
2.3.3 oocyst counting and relative decrement rate of oocysts: on the 7th day after coccidium infection, digesting the collected fresh feces with 10% sodium hypochlorite for 15 min, counting the number of the coccidium oocysts per gram of feces through a blood counting chamber, and calculating the relative decrement rate of the oocysts in the feces of each experiment group. The relative decrement rate of oocysts=(the number of the oocysts per gram of feces in the coccidium-killed and non-drug-applied control group−the number of the oocysts per gram of feces in the experiment groups)/the number of the oocysts per gram of feces in the coccidium-killed and non-drug-applied control group×100%.

SMILES | average weight gain [g] | number of oocysts in feces [g⁻¹] | survival rate [%] | relative decrement rate of oocysts [%] | relative weight gain rate [%] | inhibition of eimeria acervulina, in words (hydrochloride)
CCCc1ncc(C[n+]2ccccc2C)c(N)n1 [amprolium, Amprolium, reference compound] | 166.6 | 29800 | 100 | 88.8 | 86.4 | 
CCc1ncc(C[n+]2csc(CCF)c2C)c(N)n1 [fluoroethyl thiamine hydrochloride, 3-[(4-amino-2-ethyl-5-pyrimidyl)-methylene]-5-(2-fluoroethyl)-4-methyl thiazole chloride hydrochloride] | 186.5 | 6500 | 100 | 97.6 | 96.7 | significant inhibition effect on the eimeria acervulina; also recorded: superior to amprolium in eimeria acervulina inhibition

Reference: patent US9096581B2, “Fluoroethyl thiamine or salts thereof and application thereof in preparation of anticoccidial drugs” (GUANGZHOU ORIGMOL FEED-ADDITIVE CO., LTD, priority 2012, dated 2015)
